According to patent US11446270B2, “Leonurine crystal and use thereof in preparation of insulin sensitizer, hypoglycemic drug and lipid-lowering drug” (ZHUHAI HENGQIN NEW DISTRICT ZHONGZHU ZHENGTAI MEDICAL …, priority 2017, dated 2022):
“Also recorded” adds a separate entry of the source.

Key:
[1] = tested on: ApoE knockout mice; experiment: Serum lipids in hyperlipidemia ApoE knockout mice on high fat diet; type: in vivo; conditions: 4 weeks
Procedure: Fifteen C57BL/6J mice (male, 6-8 weeks) and seventy-five ApoE knockout mice (male, 6-8 weeks) were used for experiments. C57BL/6J mice were fed with normal diet, and ApoE knockout mice were fed for 1 week with a diet of normal/high fat diet ratio of 1/1.
Mice were weighed before administered drugs every week, where the dosage of the drug for mice is calculate according to the weight; and housed under 24±1° C. room temperature and 55±5% air humidity condition, and allowed enough food and water ad libitum. After the drug administration continuously for 4 weeks, the mice were anesthetized with pentobarbital sodium according to body weight. Blood (0.5 ml per mouse) was drawn from the inner canthus vein for hematology analysis. Hematology analysis: blood samples were let for standing for 2 h and centrifuged (3000 rpm, 10 min, 4° C.) to obtain serum. The total cholesterol (TC), triacylglycerol (TG) and low-density cholesterol (LDL-C) levels in the serum samples were assessed using automatic biochemical analyzer. Statistical analysis: GraphPad Prism 5 software was used to analyze and draw figure. Results were expressed as the mean±standard (mean±SD), and statistical analysis was performed by one-way analysis of variance (ANOVA) or student's t test. A difference with P<0.05 was considered statistically significant. Statistical significance was set at *P<0.05, **P<0.01, ***P<0.001 versus the model group.

[2] = Chronic administration for 3 weeks, body weight of rats; type: in vivo, rat; conditions: fourth week (one week after discontinuation), vs solvent control, listed as leonurine crystal form A
Procedure: Forty male Sprague-Dawley rats weighed 180 to 220 g were randomly divided into 4 groups (10 rats each group): control group are treated with equal volume of DMSO, and the treatment groups were administered at 30 mg/kg per day, 60 mg/kg per day, and 120 mg/kg per day of leonurine crystal form A respectively, where leonurine crystal form A was dissolved in DMSO at concentrates of 30 mg/ml, 60 mg/ml and 120 mg/ml, and the volume of vehicle administered intragastrically in each rat was 1 ml per kg of body weight. The rats were treated with leonurine crystal form A or DMSO once a day continuously for 3 weeks, and the body weight and fasting blood-glucose were detected at third week. The rats were fasted (allowed water ad libitum) for 12 h before experiment. Fasting blood-glucose and body weight were tested after 1 h of administered drugs. The rats were not given drugs on the next days for one week, and the body weight and fasting blood-glucose were detected at forth week. The data were analyzed by SPSS statistical software (version 11.5), and results were expressed as the mean±standard error of the mean (mean±SEM). Multiple group comparisons were tested by one-way analysis of variance (ANOVA). P<0.05 was considered as statistically significant.

[3] = tested on: Sprague-Dawley male rats; experiment: Chronic continuous administration for 7 days, insulin sensitivity test in rats; type: in vivo; conditions: rat, vs control, listed as leonurine crystal form A
Procedure: Twenty Sprague-Dawley male rats (body weight 180-220 g) were randomly divided into 4 groups, give control solvent and three different doses of leonurine crystal form A respectively. The control solvent group was given an equal volume of DMSO, and the treatment groups were administered at three doses of 30 mg/kg, 60 mg/kg and 120 mg/kg respectively, 5 rats per group, where the leonurine crystal form A was dissolved in DMSO at concentrations of 30 mg/ml, 60 mg/ml and 120 mg/ml respectively. The volume of solvent used per rat is one millilitre per kilogram of body weight. The rats were administered intragastrically with the drugs or control solvent once a day for 7 consecutive days, and performing insulin sensitivity test on the 7th day. The rats were treated with the drugs or control solvent on the day of the test, and weighed before administration, then taking blood from tail vein to measure blood glucose. Each rat was tested for insulin sensitivity 1 hour after administration of the drugs or control solvent, and the rats were not fed food for 4 hours before the insulin sensitivity test to make them fasted but still given water. The insulin dose in the insulin sensitivity test is 0.75 units per kilogram of body weight, and insulin was injected through intraperitonealion. Blood glucose was measured before injection and at 15, 30, 60, 90, and 120 minutes after injection. The data were analyzed by SPSS statistical software (version 11.5), and the results were expressed as mean ±standard error of the mean (mean±SEM). Multiple group comparisons were tested by one-way analysis of variance (ANOVA). P<0.05 was considered as statistically significant.

[4] = tested on: New Zealand rabbits; experiment: Carotid atherosclerotic plaque intima-media thickness (IMT) by high-frequency ultrasound in rabbit atherosclerosis model; type: in vivo; conditions: for intimal-medial thickness (IMT) at the largest carotid plaque: high fat diet 8 weeks, vs model group
Procedure: Forty-two male New Zealand rabbits weighed 2.0 to 2.5 kg were fed with normal diet to adapt to the housing environment for one week before experiment, and then the rabbits were fed with high fat diet (1% cholesterol; SF00-221 SpecialtyFeed Australia) for 8 weeks to establish the rabbit model of atherosclerosis. […] When the rabbits were started to give high fat diet, various drugs or vehicle (NC and MD groups) were simultaneously administered. The drug was administered once a day continuously for 8 weeks and weighed once a week to adjust the dose of drugs. Rabbits were caged in an air-conditioned room (24±1° C. room temperature and 55±5% air humidity) with 12 h light per day and had free access to water and were fed ad libitum. High-frequency ultrasound detection of carotid plaque: the high-frequency microscopy imaging system (Vevo770) was used to detect carotid atherosclerotic plaque at the end of the 8th week of the experiment. The rabbits were anesthetized with 3% pentobarbital sodium in the dose of 30 mg/kg. Using the RMV707B probe (resolution 30 MHz) to observe the carotid bifurcation plaque and measure the blood flow velocity on the carotid artery long axis section by two-dimensional ultrasound. Then adjust direction of the probe so that the angle between the probe and the carotid artery is less than 60° to obtain the long-axis view. The intima-media thickness (IMT) is measured at the maximum end-diastolic plaque. The measurement to detected IMT is taking the vertical distance between the lumen-intimal echo to the medial-outer membrane echo, and detecting the atherosclerotic plaque on the right common carotid artery bifurcation proximal. The carotid ultrasound images and the maximum IMT at the plaque were analyzed, and the morphology of atherosclerotic plaques was evaluated. The data were analyzed by Vevo770 microscopy imaging system software. All measurements were repeated twice in the same area and averaged.

[5] = dose not stated, listed as leonurine crystal form A
[6] = middle dose group 20 mg/kg/day intragastric, vs model group, listed as leonurine crystal form A

COc1cc(C(=O)OCCCCNC(=N)N)cc(OC)c1O [crystal form A, 4-guanidino-1-butyl 4-hydroxy-3,5-dimethoxybenzoate]
serum low-density lipoprotein / low-density cholesterol (LDL-C) [1, 5]: reduce; also recorded: significantly decrease
serum total cholesterol (TC) [1, 5]: reduce; also recorded: significantly decrease
serum triglycerides / triacylglycerol (TG) [1, 5]: reduce; also recorded: significantly decrease
serum total cholesterol (TC) ([1]; middle dose group 20 mg/kg/day intragastric, vs model group): reduced
serum low-density cholesterol (LDL-C) [1, 6]: reduced; also recorded: decrease
serum triacylglycerol (TG) [1, 6]: reduced; also recorded: decrease
weight of rats ([2]; 60 mg/kg/d for 3 weeks): significantly reduced; also recorded: significantly decreased
weight of rats ([2]; 120 mg/kg/d for 3 weeks): had not statistically difference; also recorded: not statistically significant
insulin sensitivity curve ([3]; 30 mg/kg/d for 7 days, 30 minute time point, 30 mg/kg/day): increased insulin sensitivity; also recorded: decreased significantly
insulin sensitivity curve ([3]; 30 mg/kg/d for 7 days, 60 minute time point, 30 mg/kg/day): increased insulin sensitivity; also recorded: decreased significantly
insulin sensitivity curve ([3]; 30 mg/kg/d for 7 days, 90 minute time point, 30 mg/kg/day): increased insulin sensitivity; also recorded: decreased significantly
insulin sensitivity curve ([3]; 60 mg/kg/d for 7 days, 30 minute time point, 60 mg/kg/day): increased insulin sensitivity; also recorded: decreased significantly
insulin sensitivity curve ([3]; 60 mg/kg/d for 7 days, 60 minute time point, 60 mg/kg/day): increased insulin sensitivity; also recorded: decreased significantly
insulin sensitivity curve ([3]; 60 mg/kg/d for 7 days, 90 minute time point, 60 mg/kg/day): increased insulin sensitivity; also recorded: decreased significantly
insulin sensitivity curve ([3]; 120 mg/kg/d for 7 days, 60 minute time point, 120 mg/kg/day): increased insulin sensitivity; also recorded: decreased significantly
carotid plaque thickness / IMT growth induced by high fat ([4]; high fat diet 8 weeks, 4, 8, 16 mg/kg/day, dose-dependent effect): significantly inhibited IMT growth
intimal-medial thickness (IMT) at the largest carotid plaque ([4]; high dose group 16 mg/kg/d): decrease plaque thickness
intimal-medial thickness (IMT) at the largest carotid plaque ([4]; medium dose group 8 mg/kg/d): decrease plaque thickness
